According to the NIST ThermoML archive (doi:10.1016/j.jct.2010.09.006):

Assay: cn = amount concentration of the nth substance listed, in mol/dm3
Details: 101 kPa, Liquid, Taylor dispersion method

[Cl][Ni][Cl] [nickel chloride (NiCl2)] + O
binary diffusion coefficient [m2/s]
Details	c1 = 0	c1 = 0.001	c1 = 0.005	c1 = 0.01	c1 = 0.1
298.15 K	1.26e-09	1.23e-09	1.12e-09	1.04e-09	9.86e-10
310.15 K	1.4e-09	1.39e-09	1.37e-09	1.34e-09	1.29e-09
